Reference: patent publication US10301304B2, “Selective inhibitor of phosphatidylinositol 3-kinase-gamma” (VERTEX PHARMACEUTICALS INCORPORATED, priority 2013, dated 2019)
Like-named read-outs stand apart in the source and are kept apart here.

Tests used:
PI3K-α = PI3K-α (Homo sapiens, UniProt P42336); assay: PI3K Inhibition Assay; format: biochemical
Method: (§1) Using a Biomek FX from Beckman Coulter, 1.5 μL of each of ten 2.5-fold serial dilutions of the compound of the invention in 100% DMSO was added to an individual well (hereafter, “test well”) in a 96 well polystyrene plate [Corning, Costar Item No. 3697]. One test well also contained 1.5 μL of DMSO with no compound. […] Using a Titertek Multidrop, 50 μL of Reaction Mix [100 mM HEPES pH 7.5, 50 mM NaCl, 10 mM DTT, 0.2 mg/mL BSA, 60 μM phosphatidylinositol(4,5)-bisphosphate diC16 (PI(4,5)P2; Avanti Polar Lipids, Cat. No. 840046P) and PI3K isoform of interest (see Table 1 for isoform concentrations)] was added to each well. To initiate the reaction, 50 μL of ATP Mix [20 mM MgCl2, 6 μM ATP (100 μCi/μmole ^33P-ATP was added to each well, followed by incubating the wells for 30 min. at 25° C. Final concentrations in each well were 50 mM HEPES 7.5, 10 mM MgCl2, 25 mM NaCl, 5 mM DTT, 0.1 mg/mL BSA, 30 μM PI(4,5)P2, 3 μM ATP, and the PI3K isoform of interest (see Table 2). Final compound concentrations in each well ranged from 10 μM to 1 nM.
(§2) After incubation, the reactions in each well were quenched by addition of 50 μL of stop solution [30% TCA/Water, 10 mM ATP]. Each quenched reaction mixture was then transferred to a 96 well glass fiber filter plate [Corning, Costar Item No. 3511]. The plate was vacuum-filtered and washed three times with 150 μL of 5% TCA/water in a modified Bio-Tek Instruments ELX-405 Auto Plate Washer. 50 μL of scintillation fluid was added to each well and the plate read on a Perkin-Elmer TopCount™ NXT liquid scintillation counter to obtain ^33P-counts representing inhibition values.
(§3) The value for the background well was subtracted from the value obtained for each test well and the data were fit to the competitive tight binding Ki equation described by Morrison and Stone, Comments Mol. Cell Biophys. 2: 347-368, 1985. […] In addition, isoform selectivity was also seen as Compound 1 was tested against PI3K-alpha, PI3K-beta, and PI3K-delta isoforms and was determined to have a selectivity of greater than 15 fold for PI3K-gamma as shown in Table 2.

PI3K-β = PI3K-β (Homo sapiens, UniProt P42338); assay: PI3K Inhibition Assay; format: biochemical
Sequence of PI3K-β (P42338 whole entry, species assumed): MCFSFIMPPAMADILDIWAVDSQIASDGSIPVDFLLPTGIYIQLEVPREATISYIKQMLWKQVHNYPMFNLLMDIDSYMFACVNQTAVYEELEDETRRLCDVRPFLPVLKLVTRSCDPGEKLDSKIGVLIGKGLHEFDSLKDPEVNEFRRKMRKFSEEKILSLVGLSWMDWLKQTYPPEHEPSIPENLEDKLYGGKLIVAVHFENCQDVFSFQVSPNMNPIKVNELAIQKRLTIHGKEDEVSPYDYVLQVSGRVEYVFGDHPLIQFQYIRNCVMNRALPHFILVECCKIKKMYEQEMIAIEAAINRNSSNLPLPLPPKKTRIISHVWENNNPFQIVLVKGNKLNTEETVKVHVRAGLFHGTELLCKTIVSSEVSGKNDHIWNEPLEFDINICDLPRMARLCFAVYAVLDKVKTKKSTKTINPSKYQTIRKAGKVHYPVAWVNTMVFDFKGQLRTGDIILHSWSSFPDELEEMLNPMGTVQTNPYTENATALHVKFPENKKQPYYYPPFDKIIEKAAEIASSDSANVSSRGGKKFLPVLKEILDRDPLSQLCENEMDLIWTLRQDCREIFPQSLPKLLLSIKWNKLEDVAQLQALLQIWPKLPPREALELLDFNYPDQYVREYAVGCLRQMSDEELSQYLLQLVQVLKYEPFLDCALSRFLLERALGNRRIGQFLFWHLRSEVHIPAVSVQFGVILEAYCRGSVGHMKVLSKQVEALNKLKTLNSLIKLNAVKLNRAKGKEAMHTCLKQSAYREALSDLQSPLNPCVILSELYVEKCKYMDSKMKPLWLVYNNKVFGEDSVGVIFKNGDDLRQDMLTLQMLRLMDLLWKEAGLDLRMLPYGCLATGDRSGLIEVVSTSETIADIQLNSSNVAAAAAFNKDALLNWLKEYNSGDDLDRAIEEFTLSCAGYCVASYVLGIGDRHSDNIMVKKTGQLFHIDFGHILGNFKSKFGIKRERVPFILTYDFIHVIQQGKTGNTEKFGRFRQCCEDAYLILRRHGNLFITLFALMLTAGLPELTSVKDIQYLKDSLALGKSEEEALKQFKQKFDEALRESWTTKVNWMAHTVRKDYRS
Sequence of PI3K-β (P27986 whole entry partner, species assumed): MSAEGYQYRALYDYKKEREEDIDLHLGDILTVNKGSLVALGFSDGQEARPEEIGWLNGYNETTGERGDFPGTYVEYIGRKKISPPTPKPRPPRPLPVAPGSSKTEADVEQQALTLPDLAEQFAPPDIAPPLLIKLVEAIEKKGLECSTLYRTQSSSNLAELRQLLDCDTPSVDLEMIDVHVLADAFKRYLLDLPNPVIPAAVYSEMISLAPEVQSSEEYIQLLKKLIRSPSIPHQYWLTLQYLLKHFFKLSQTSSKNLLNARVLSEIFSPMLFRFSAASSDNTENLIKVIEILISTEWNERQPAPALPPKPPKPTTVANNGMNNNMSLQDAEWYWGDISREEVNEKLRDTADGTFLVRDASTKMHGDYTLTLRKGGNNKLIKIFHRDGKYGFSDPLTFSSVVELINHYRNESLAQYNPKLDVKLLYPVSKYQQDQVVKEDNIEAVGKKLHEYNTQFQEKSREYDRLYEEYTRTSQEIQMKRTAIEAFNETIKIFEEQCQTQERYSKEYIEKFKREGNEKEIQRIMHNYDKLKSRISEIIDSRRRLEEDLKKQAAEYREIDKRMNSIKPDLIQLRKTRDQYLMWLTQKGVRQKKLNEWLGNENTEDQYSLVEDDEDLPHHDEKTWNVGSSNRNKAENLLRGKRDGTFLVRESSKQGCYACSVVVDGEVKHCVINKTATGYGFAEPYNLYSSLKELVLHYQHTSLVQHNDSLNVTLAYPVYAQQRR
Method: as §1, §2, §3

PI3K-γ = PI3K-γ (Homo sapiens, UniProt P48736); assay: PI3K Inhibition Assay; format: biochemical
Method: as §1, §2, §3

PI3K-δ = PI3K-δ (Homo sapiens, UniProt O00329); assay: PI3K Inhibition Assay; format: biochemical
Sequence of PI3K-δ (O00329 whole entry, species assumed): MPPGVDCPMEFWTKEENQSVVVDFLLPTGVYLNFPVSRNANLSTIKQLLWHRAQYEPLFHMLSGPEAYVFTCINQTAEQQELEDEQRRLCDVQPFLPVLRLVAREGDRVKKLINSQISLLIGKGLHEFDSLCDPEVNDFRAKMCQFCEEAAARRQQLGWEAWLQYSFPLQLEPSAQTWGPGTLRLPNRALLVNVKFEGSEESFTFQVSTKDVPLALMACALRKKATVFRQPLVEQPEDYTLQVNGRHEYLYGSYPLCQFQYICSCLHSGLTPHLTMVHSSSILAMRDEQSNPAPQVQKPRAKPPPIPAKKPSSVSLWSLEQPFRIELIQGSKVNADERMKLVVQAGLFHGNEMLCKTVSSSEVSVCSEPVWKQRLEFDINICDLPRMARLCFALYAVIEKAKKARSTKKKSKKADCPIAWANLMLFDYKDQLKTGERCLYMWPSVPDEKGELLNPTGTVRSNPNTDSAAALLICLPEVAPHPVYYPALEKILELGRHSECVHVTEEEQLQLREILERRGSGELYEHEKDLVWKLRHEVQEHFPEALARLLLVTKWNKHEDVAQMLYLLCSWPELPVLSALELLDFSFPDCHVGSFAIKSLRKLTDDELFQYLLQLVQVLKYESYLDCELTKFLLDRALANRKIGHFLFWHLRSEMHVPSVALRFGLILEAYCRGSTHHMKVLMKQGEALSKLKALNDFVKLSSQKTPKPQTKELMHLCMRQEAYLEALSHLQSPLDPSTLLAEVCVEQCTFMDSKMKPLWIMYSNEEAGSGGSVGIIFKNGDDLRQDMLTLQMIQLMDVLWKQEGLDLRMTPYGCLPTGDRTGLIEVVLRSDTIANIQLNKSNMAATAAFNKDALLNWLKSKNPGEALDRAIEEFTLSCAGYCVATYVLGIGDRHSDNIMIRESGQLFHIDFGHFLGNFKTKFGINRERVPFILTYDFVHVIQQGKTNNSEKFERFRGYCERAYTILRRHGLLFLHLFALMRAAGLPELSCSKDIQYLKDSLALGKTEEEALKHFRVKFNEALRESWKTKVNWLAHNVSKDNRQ
Sequence of PI3K-δ (P27986 whole entry partner, species assumed): as the sequence (P27986 whole entry partner, species assumed) above
Method: as §1, §2, §3

[1] = target: T1, pregnane-X receptor (PXR) (Homo sapiens, UniProt O75469); assay: PXR activation in DPX2 cells; format: in vitro ADME
T1 construct: expressed in transfected cells; host or cells: DPX2 cells (human hepatoma cell line)
T1 sequence (O75469 whole entry): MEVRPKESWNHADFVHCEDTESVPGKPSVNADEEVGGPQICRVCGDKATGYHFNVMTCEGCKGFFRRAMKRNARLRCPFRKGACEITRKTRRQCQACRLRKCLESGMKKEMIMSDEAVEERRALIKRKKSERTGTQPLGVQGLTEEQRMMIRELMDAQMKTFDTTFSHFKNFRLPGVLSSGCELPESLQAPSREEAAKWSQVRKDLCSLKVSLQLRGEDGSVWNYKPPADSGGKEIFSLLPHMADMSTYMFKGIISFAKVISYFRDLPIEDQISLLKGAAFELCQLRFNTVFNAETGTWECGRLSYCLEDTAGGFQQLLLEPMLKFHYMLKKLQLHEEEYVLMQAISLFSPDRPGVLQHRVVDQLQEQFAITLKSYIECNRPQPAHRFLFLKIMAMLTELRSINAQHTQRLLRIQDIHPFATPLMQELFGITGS
Method: The potential of Compound 1 to activate the pregnane-X receptor (PXR) was evaluated over a range of six concentrations from 0.1-30 μM in DPX2 cells, a human hepatoma cell line that is stably overexpressed with the human PXR gene and a luciferase reporter gene linked to two promoters in the human CYP3A4 gene. Rifampicin was used as a positive control.

[2] = Intravenous bolus pharmacokinetics; format: in vivo; conditions: single IV bolus; for AUC / AUC(0-inf) / clearance / half-life / Vd: in vivo; for Vd: read-out: Vss
Text: Following intravenous administration of a single bolus dose, Compound 1 had low systemic clearance and a long half-life in all species tested. […] The volume of distribution was greater than the total body water, indicating distribution of Compound 1 to tissues.

CD40 induced colitis = CD40 induced colitis (IBD) model, body weight loss; format: in vivo, mouse
Method: (§4) The PI3Kγ inhibitor, Compound 1, was tested in a CD40 induced colitis model to determine its effect on disease course. The CD40 model of IBD is induced by injecting an anti-CD40 monoclonal antibody (agonist, i.e., activating antibody versus neutralizing antibody) into T and B cell deficient mice (Rag 1−/− mice) to induce both systemic and intestinal inflammation that leads to colitis and wasting disease via the innate immune pathway. (See, e.g., Immunity 25, 309-318, August 2006). Briefly, Rag1 knock-out mice were injected IP with the anti-CD40 monoclonal antibody FGK45. Starting on Day 0, mice were treated with PBS, vehicle or Compound 1 at 5 mg/kg b.i.d. or 10 mg/kg b.i.d. Compound 1 was administered IP for 7 days on a 10/14-hour b.i.d. dosing regimen. Compound 1 was formulated in 5% NMP/15% PEG-400/80% in a 0.5% HPMC-E50 solution in water. At study termination, serum and colon samples were collected at 2 hours following the last dose for drug concentration analysis. Body weights were measured daily during the study. Compound 1 concentrations were analyzed in the plasma samples collected 2 hours following the final dose at study termination. Concentrations were determined using a high performance liquid chromatography/tandem mass spectrometry (HPLC/MS/MS) method.

[3] = Tissue drug concentrations in CD40-induced IBD model; format: in vivo, mouse; conditions: 7 days, 2 h after last dose; for Kp at 2 h / concentration at 2 h: Rag1 knock-out (Rag 1−/−), mouse, intraperitoneal; for Kp at 2 h: colon (relative to plasma); for concentration at 2 h: plasma
Method: as §4

Sequence of PI3K-α (P42336 whole entry, species assumed, canonical isoform): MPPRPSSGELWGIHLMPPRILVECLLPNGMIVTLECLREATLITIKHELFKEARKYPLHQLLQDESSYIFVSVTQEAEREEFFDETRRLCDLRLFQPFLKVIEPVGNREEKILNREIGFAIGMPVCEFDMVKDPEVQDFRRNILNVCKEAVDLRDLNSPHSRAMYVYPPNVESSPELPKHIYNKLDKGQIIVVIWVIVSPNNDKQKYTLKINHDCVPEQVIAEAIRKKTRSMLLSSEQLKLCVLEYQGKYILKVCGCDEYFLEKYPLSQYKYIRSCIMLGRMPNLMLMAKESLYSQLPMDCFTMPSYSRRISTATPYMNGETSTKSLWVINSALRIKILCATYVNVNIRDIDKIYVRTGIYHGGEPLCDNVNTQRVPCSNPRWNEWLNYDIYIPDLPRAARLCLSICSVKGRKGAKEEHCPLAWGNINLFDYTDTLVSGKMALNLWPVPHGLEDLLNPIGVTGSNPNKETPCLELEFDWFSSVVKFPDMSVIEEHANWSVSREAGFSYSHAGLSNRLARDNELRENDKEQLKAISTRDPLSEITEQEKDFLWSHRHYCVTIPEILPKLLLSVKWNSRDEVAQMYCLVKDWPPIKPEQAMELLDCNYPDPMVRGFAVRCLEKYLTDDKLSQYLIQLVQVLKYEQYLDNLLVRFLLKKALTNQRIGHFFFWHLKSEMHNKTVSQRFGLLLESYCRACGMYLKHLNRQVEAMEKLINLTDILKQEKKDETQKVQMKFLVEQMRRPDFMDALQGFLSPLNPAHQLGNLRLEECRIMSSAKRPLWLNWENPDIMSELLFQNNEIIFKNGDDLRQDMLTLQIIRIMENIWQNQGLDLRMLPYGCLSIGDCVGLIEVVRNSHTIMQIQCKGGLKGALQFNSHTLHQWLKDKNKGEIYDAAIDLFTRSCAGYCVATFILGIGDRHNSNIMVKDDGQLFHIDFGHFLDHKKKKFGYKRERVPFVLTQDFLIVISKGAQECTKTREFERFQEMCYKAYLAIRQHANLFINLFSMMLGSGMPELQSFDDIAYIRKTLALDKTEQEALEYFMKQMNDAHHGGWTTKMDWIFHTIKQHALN
Sequence of PI3K-α (P27986 whole entry partner, species assumed, canonical isoform): as the sequence (P27986 whole entry partner, species assumed) above

## Cc1cc(-c2cncc([C@@H](O)C(F)(F)F)c2)nc2c1C(=O)N(c1cnn(CC(F)F)c1)C2(C)C [Compound 1, (R)-6-(1-(2,2-difluoroethyl)-1H-pyrazol-4-yl)-4,7,7-trimethyl-2-(5-(2,2,2-trifluoro-1-hydroxyethyl)pyridin-3-yl)-6,7-dihydro-5H-pyrrolo[3,4-b]pyridin-5-one]
PI3K-α; PI3Kα
  Ki: 280 ± 90 nM
PI3K-α; PI3Kγ over PI3Kα
  Fold Selectivity: 30 fold
PI3K-β; PI3Kβ
  Ki: 220 ± 30 nM
PI3K-β; PI3Kγ over PI3Kβ
  Fold Selectivity: 26 fold
PI3K-γ; PI3K-gamma, ATP-competitive
  Ki: 8 nM
PI3K-γ; against PI3K-alpha, PI3K-beta and PI3K-delta isoforms
  selectivity for PI3K-gamma: greater than 15 fold
PI3K-δ; PI3Kγ over PI3Kδ
  Fold Selectivity: 19 fold
PI3K-δ; PI3Kδ
  Ki: 160 ± 50 nM
[1]; 0.1-30 μM, Rifampicin positive control
  PXR activation, response relative to positive control: 5%
[1]; PXR activation
  EC50: > 30000 nM
[2]; Dog, 0.5 mg/kg nominal
  % HBF (hepatic blood flow): ~13%
  DN_AUCINF: 4000 ng·h/mL
  AUC: 1900 ng·h/mL
  AUC(0-inf): 2000 ng·h/mL
  clearance: 5.4 mL/min/kg
  half-life: 10.7 h
  Vd: 3.9 L/kg
[2]; Monkey, 0.5 mg/kg nominal
  % HBF (hepatic blood flow): ~26%
  DN_AUCINF: 1500 ng·h/mL
  AUC: 700 ng·h/mL
  AUC(0-inf): 740 ng·h/mL
  clearance: 11.5 mL/min/kg
  half-life: 6.6 h
  Vd: 3.3 L/kg
[2]; Mouse, 0.45 mg/kg nominal
  DN_AUCINF: 3400 ng·h/mL
  AUC: 1090 ng·h/mL
  AUC(0-inf): 1530 ng·h/mL
  clearance: 4.9 mL/min/kg
  half-life: 4.3 h
  Vd: 1.8 L/kg
CD40 induced colitis; 5 mg/kg b.i.d. IP, *p<0.05 d3, **p<0.01 d4, vs vehicle
  body weight loss (FIG. 4): significantly inhibited
CD40 induced colitis; 10 mg/kg b.i.d. IP, ***p<0.001 d3-4, vs vehicle
  body weight loss (FIG. 4): significantly inhibited
[3]; 5 mg/kg b.i.d. IP
  2 h Tissue Drug Concentration, Colon: 6110 ± 6350 ng/g
  Kp at 2 h: 1.5
  concentration at 2 h: 4020 ± 4520 ng/mL
[3]; 10 mg/kg b.i.d. IP
  2 h Tissue Drug Concentration, Colon: 7480 ± 9700 ng/g
  Kp at 2 h: 1.2
  concentration at 2 h: 6220 ± 6190 ng/mL
